# How the values were obtained:
# Type in all cases: in vivo
# [1] = tested on: redroot pigweed (Amaranthus retroflexus, AMARE); assay: Pre-emerge test, greenhouse herbicide activity screening; conditions: pre-emerge, rated 14 days after application, 0 = no damage, 100 = complete death
# Summary of the method: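 Compounds in acetone were track-sprayed at 15-1000 g ai/ha (187 l/ha) on sandy loam pots: pre-emerge one day after seeding, post-emerge at 2-3 leaf stage with 0.25% v/v non-ionic surfactant. Phytotoxicity was rated 14 days later on a 0 (no damage) to 100 (complete death) scale.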
# [2] = tested on: johnsongrass (Sorghum halepense, SORHA); assay: as above; conditions: pre-emerge, rated 14 days after application, 0 = no damage, 100 = complete death
# Summary of the method: (§1)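 Plants grown in 10 cm pots of sandy loam mix received acetone-dissolved compounds through a moving flat-fan nozzle. Doses ranged from 15 to 1000 g ai/ha. Pre-emerge pots were seeded one day earlier, post-emerge pots 8–21 days earlier. Fourteen days on, each pot was graded 0–100 for damage.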
# [3] = tested on: ivyleaf morningglory (Ipomoea hederacea, IPOHE); assay: as above; conditions: pre-emerge, rated 14 days after application, 0 = no damage, 100 = complete death
# Summary of the method: as §1
# [4] = tested on: velvetleaf (Abutilon theophrasti, ABUTH); assay: as above; conditions: pre-emerge, rated 14 days after application, 0 = no damage, 100 = complete death
# Summary of the method: as §1
# [5] = tested on: sicklepod (Cassia obtusifolia, CASOB); assay: as above; conditions: pre-emerge, rated 14 days after application, 0 = no damage, 100 = complete death
# Summary of the method: as §1
# [6] = tested on: lambsquarters (Chenopodium album, CHEAL); assay: as above; conditions: pre-emerge, rated 14 days after application, 0 = no damage, 100 = complete death
# Summary of the method: as §1
# [7] = tested on: barnyardgrass (Echinochloa crus-galli, ECHCG); assay: as above; conditions: pre-emerge, rated 14 days after application, 0 = no damage, 100 = complete death
# Summary of the method: as §1
# [8] = tested on: large crabgrass (Digitaria sanguinalis, DIGSA); assay: as above; conditions: pre-emerge, rated 14 days after application, 0 = no damage, 100 = complete death
# Summary of the method: as §1
# [9] = tested on: green foxtail (Setaria viridis, SETVI); assay: as above; conditions: pre-emerge, rated 14 days after application, 0 = no damage, 100 = complete death
# Summary of the method: as §1
# [10] = tested on: field corn (Zea mays L., var. Dekalb 535, CORN); assay: Post-emerge test, crop safety; conditions: phytotoxicity rating 0-100 (0 no damage, 100 complete death), 14 days after application
# Summary of the method: (§2)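 Each test used a mechanized track sprayer delivering 187 l/ha of acetone solution at 15–1000 g ai/ha. Post-emerge foliage at 2–3 leaves was treated with added 0.25% v/v non-ionic surfactant and bottom-watered only. Injury was assessed on day 14, where 100 means total kill.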
# [11] = tested on: upland rice (Oryza sp., var. Tebonnet, RICE); assay: Post-emerge test, crop safety; conditions: phytotoxicity rating 0-100 (0 no damage, 100 complete death), 14 days after application
# Summary of the method: as §2
# [12] = tested on: johnsongrass (Sorghum halepense, SORHA); assay: Post-emerge test, greenhouse herbicide activity screening; conditions: phytotoxicity rating 0-100 (0 no damage, 100 complete death), 14 days after application
# Summary of the method: (§3)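 Rating: 0–100 visual injury, 14 DAA. Application: acetone, 187 l/ha, 15–1000 g ai/ha, flat-fan track sprayer with nozzle 40–45 cm above soil or canopy. Post-emerge runs used 0.25% v/v surfactant on 2–3 leaf plants.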
# [13] = tested on: common ragweed (Ambrosia artemisizfolia L., AMBEL); assay: as above; conditions: phytotoxicity rating 0-100 (0 no damage, 100 complete death), 14 days after application
# Summary of the method: as §3
# [14] = tested on: ivyleaf morningglory (Ipomoea hederacea, IPOHE); assay: as above; conditions: phytotoxicity rating 0-100 (0 no damage, 100 complete death), 14 days after application
# Summary of the method: as §3
# [15] = tested on: velvetleaf (Abutilon theophrasti, ABUTH); assay: as above; conditions: phytotoxicity rating 0-100 (0 no damage, 100 complete death), 14 days after application
# Summary of the method: as §3
# [16] = tested on: sicklepod (Cassia obtusifolia, CASOB); assay: as above; conditions: phytotoxicity rating 0-100 (0 no damage, 100 complete death), 14 days after application
# Summary of the method: as §3
# [17] = tested on: lambsquarters (Chenopodium album, CHEAL); assay: as above; conditions: phytotoxicity rating 0-100 (0 no damage, 100 complete death), 14 days after application
# Summary of the method: as §3
# [18] = tested on: barnyardgrass (Echinochloa crus-galli, ECHCG); assay: as above; conditions: phytotoxicity rating 0-100 (0 no damage, 100 complete death), 14 days after application
# Summary of the method: as §3
# [19] = tested on: redroot pigweed (Amaranthus retroflexus, AMARE); assay: as above; conditions: phytotoxicity rating 0-100 (0 no damage, 100 complete death), 14 days after application
# Summary of the method: as §3
# [20] = tested on: large crabgrass (Digitaria sanguinalis, DIGSA); assay: as above; conditions: phytotoxicity rating 0-100 (0 no damage, 100 complete death), 14 days after application
# Summary of the method: as §3
# [21] = tested on: green foxtail (Setaria viridis, SETVI); assay: as above; conditions: phytotoxicity rating 0-100 (0 no damage, 100 complete death), 14 days after application
# Summary of the method: as §3
# [22] = tested on: field corn (Zea mays L., var. Dekalb 535, CORN); assay: Pre-emerge test, crop safety; conditions: pre-emerge, rated 14 days after application, 0 = no damage, 100 = complete death
# Summary of the method: as §1
# [23] = tested on: upland rice (Oryza sp., var. Tebonnet, RICE); assay: Pre-emerge test, crop safety; conditions: pre-emerge, rated 14 days after application, 0 = no damage, 100 = complete death
# Summary of the method: as §1
compound,measurement,setting,value
CCOC(=O)C(C)Nc1c(OC)c(Cl)cc(F)c1-n1c(=O)cc(C(F)(F)F)n(C)c1=O (stereo not shown) [Compound 1-55],"Pre-emerge Herbicidal Activity AMARE (phytotoxicity rating, scale 0-100)",[1]; 63 g ai/ha,70
same,"Pre-emerge Herbicidal Activity AMARE (phytotoxicity rating, scale 0-100)",[1]; 250 g ai/ha,70
same,"Pre-emerge Herbicidal Activity SORHA (phytotoxicity rating, scale 0-100)",[2]; 63 g ai/ha,20
same,"Pre-emerge Herbicidal Activity SORHA (phytotoxicity rating, scale 0-100)",[2]; 250 g ai/ha,20
same,"Pre-emerge Herbicidal Activity IPOHE (phytotoxicity rating, scale 0-100)",[3]; 63 g ai/ha,0
same,"Pre-emerge Herbicidal Activity IPOHE (phytotoxicity rating, scale 0-100)",[3]; 250 g ai/ha,0
same,"Pre-emerge Herbicidal Activity ABUTH (phytotoxicity rating, scale 0-100)",[4]; 63 g ai/ha,90
same,"Pre-emerge Herbicidal Activity ABUTH (phytotoxicity rating, scale 0-100)",[4]; 250 g ai/ha,90
same,"Pre-emerge Herbicidal Activity CASOB (phytotoxicity rating, scale 0-100)",[5]; 63 g ai/ha,0
same,"Pre-emerge Herbicidal Activity CASOB (phytotoxicity rating, scale 0-100)",[5]; 250 g ai/ha,0
same,"Pre-emerge Herbicidal Activity CHEAL (phytotoxicity rating, scale 0-100)",[6]; 63 g ai/ha,95
same,"Pre-emerge Herbicidal Activity CHEAL (phytotoxicity rating, scale 0-100)",[6]; 250 g ai/ha,95
same,"Pre-emerge Herbicidal Activity ECHCG (phytotoxicity rating, scale 0-100)",[7]; 63 g ai/ha,10
same,"Pre-emerge Herbicidal Activity ECHCG (phytotoxicity rating, scale 0-100)",[7]; 250 g ai/ha,10
same,"Pre-emerge Herbicidal Activity DIGSA (phytotoxicity rating, scale 0-100)",[8]; 63 g ai/ha,50
same,"Pre-emerge Herbicidal Activity DIGSA (phytotoxicity rating, scale 0-100)",[8]; 250 g ai/ha,50
same,"Pre-emerge Herbicidal Activity SETVI (phytotoxicity rating, scale 0-100)",[9]; 63 g ai/ha,0
same,"Pre-emerge Herbicidal Activity SETVI (phytotoxicity rating, scale 0-100)",[9]; 250 g ai/ha,0
same,Post-emerge Herbicidal Activity CORN (crop damage),[10]; 63 g ai/ha,0
same,Post-emerge Herbicidal Activity CORN (crop damage),[10]; 250 g ai/ha,10
same,Post-emerge Herbicidal Activity RICE (crop damage),[11]; 63 g ai/ha,0
same,Post-emerge Herbicidal Activity RICE (crop damage),[11]; 250 g ai/ha,0
same,Post-emerge Herbicidal Activity SORHA,[12]; 63 g ai/ha,0
same,Post-emerge Herbicidal Activity SORHA,[12]; 250 g ai/ha,0
same,Post-emerge Herbicidal Activity AMBEL,[13]; 63 g ai/ha,70
same,Post-emerge Herbicidal Activity AMBEL,[13]; 250 g ai/ha,50
same,Post-emerge Herbicidal Activity IPOHE,[14]; 63 g ai/ha,30
same,Post-emerge Herbicidal Activity IPOHE,[14]; 250 g ai/ha,95
same,Post-emerge Herbicidal Activity ABUTH,[15]; 63 g ai/ha,80
same,Post-emerge Herbicidal Activity ABUTH,[15]; 250 g ai/ha,90
same,Post-emerge Herbicidal Activity CASOB,[16]; 63 g ai/ha,10
same,Post-emerge Herbicidal Activity CASOB,[16]; 250 g ai/ha,20
same,Post-emerge Herbicidal Activity CHEAL,[17]; 63 g ai/ha,0
same,Post-emerge Herbicidal Activity CHEAL,[17]; 250 g ai/ha,20
same,Post-emerge Herbicidal Activity ECHCG,[18]; 63 g ai/ha,0
same,Post-emerge Herbicidal Activity ECHCG,[18]; 250 g ai/ha,0
same,Post-emerge Herbicidal Activity AMARE,[19]; 63 g ai/ha,10
same,Post-emerge Herbicidal Activity AMARE,[19]; 250 g ai/ha,10
same,Post-emerge Herbicidal Activity DIGSA,[20]; 63 g ai/ha,0
same,Post-emerge Herbicidal Activity DIGSA,[20]; 250 g ai/ha,30
same,Post-emerge Herbicidal Activity SETVI,[21]; 63 g ai/ha,0
same,Post-emerge Herbicidal Activity SETVI,[21]; 250 g ai/ha,40
same,"Pre-emerge crop damage CORN (phytotoxicity rating, scale 0-100)",[22]; 63 g ai/ha,10
same,"Pre-emerge crop damage CORN (phytotoxicity rating, scale 0-100)",[22]; 250 g ai/ha,10
same,"Pre-emerge crop damage RICE (phytotoxicity rating, scale 0-100)",[23]; 63 g ai/ha,0
same,"Pre-emerge crop damage RICE (phytotoxicity rating, scale 0-100)",[23]; 250 g ai/ha,0

# From patent US6355799B1, “Substituted benzene compounds, process for their preparation, and herbicidal and defoliant compositions containing them” (ISK Americas Incorporated, priority 1997, dated 2002)
